“Also recorded” adds a separate entry of the source.
Columns and labels:
Assay type in all cases: in vivo, human
[1] = tested on: pediatric patients with moderate-to-severe AD (adolescents) or severe AD (children); test: Phase 2a open-label ascending-dose study of dupilumab in pediatric AD (efficacy and safety); details: for patients who achieved IGA 0-1 / peak pruritus NRS improved by / baseline EASI improved by: Week 12; for baseline EASI improved by: after repeated weekly doses; for reduction in EASI score from baseline: week 2
Protocol: This Example describes a phase 2a, multicenter, open-label, ascending-dose, sequential-cohort study (NCT02407756) which included adolescents (12-17 years) with moderate-to-severe AD and children (6-11 years) with severe AD, uncontrolled by topical medications. Patients received 2 mg/kg or 4 mg/kg single-dose subcutaneous dupilumab with 8 weeks follow-up, followed by 4 weekly 2 mg/kg or 4 mg/kg doses.
This was conducted as a phase 2a, multicenter, open-label, ascending dose, sequential cohort study investigating the safety, tolerability, pharmacokinetics (PK), immunogenicity, and efficacy of single-dose and repeat-doses of subcutaneously administered (SC) dupilumab in pediatric patients with moderate-to-severe AD (for adolescents ≥12 to <18 years of age) or severe AD (for children ≥6 to <12 years of age) that was not adequately controlled by topical treatments.
Two sequential ascending SC dose cohorts were planned: dose cohort 1 (2 mg/kg) and dose cohort 2 (4 mg/kg) up to a maximum dose of 300 mg. Within each dose cohort, approximately 36 to 40 patients were planned to be enrolled in 2 age subsets: subset A (adolescents ≥12 to <18 years of age) and subset B (children ≥6 to <12 years of age). Enrollment and study dosing started with cohort 1A (2 mg/kg, adolescent age subset) and proceeded in sequence to cohort 1B (2 mg/kg, children ≥6 to <12 years of age subset), cohort 2A (4 mg/kg, adolescent age subset), and cohort 2B (4 mg/kg, children ≥6 to <12 years of age subset); a safety review of data from the previous cohort(s) was performed before proceeding to the next cohort.
(§1) The study consisted of a screening period (day −35 to day −1), a baseline visit, Part A (including a single-dose treatment followed by an 8-week semi-dense PK sampling period), and Part B (including a 4-week repeat-dose treatment period [4 weekly doses] followed by an 8-week follow-up period).
Sterile dupilumab drug product 150 mg/mL was provided in an aqueous buffered vehicle, pH 5.0. It was supplied in a 5-mL vial containing 2.5 mL (150 mg/mL) with a withdrawable volume of 2.0 mL or 300 mg of dupilumab. Study drug was administered SC by the investigator or other qualified study personnel at the following dose and dosing schedules: • For dose cohort 1: 2 mg/kg at day 1 as a single dose in Part A, then weekly at day 1 to week 3 in Part B as repeat doses • For dose cohort 2: 4 mg/kg at day 1 as a single dose in Part A, then weekly at day 1 to week 3 in Part B as repeat doses
The primary objective was characterizing the PK profiles of dupilumab in pediatric AD patients aged ≥6 to <18 years. The secondary endpoints were: • Incidence of TEAEs • Percent change from baseline in Eczema Area and Severity Index (EASI) • Percent change from baseline in SCORing Atopic Dermatitis (SCORAD) score • Percent change from baseline in Pruritus Numerical Rating Scale (NRS) • Percentage of patients with an IGA score of 0 or 1 • Change from baseline in % BSA affected by AD Study Variables and Procedures
(§2) Safety and tolerability was assessed by vital signs, physical examinations, clinical laboratory tests, and clinical evaluations. Patients were asked to monitor all adverse events (AEs) experienced from the time of informed consent/assent until their last study visit. Serum samples were collected for assay of dupilumab levels, and PK parameters were calculated using the dupilumab concentration data. Serum samples were collected for assay of ADA, and exploratory analyses. Efficacy was assessed during the study at specified clinic visits using the Pruritus NRS, SCORAD, and EASI that measure the extent and severity of AD, and the IGA that rates the overall severity of AD.

[2] = tested on: adults with moderate-to-severe AD; test: 1-year placebo-controlled trial of dupilumab + TCS: subgroup analysis by CsA eligibility / CsA history; details: for proportion of patients achieving a 75% improvement in EASI / proportion of patients achieving a ≥4-point improvement in peak pruritus numerical rating scale / Patients achieving EASI-75, n (%) / Patients achieving a peak pruritus NRS score improvement ≥4 points from baseline, n/N1 (%): Week 52; for Patients achieving a peak pruritus NRS score improvement ≥4 points from baseline, n/N1 (%): baseline NRS ≥4
Protocol: Patients were randomized 3:1:3 (dupilumab 300 mg weekly [qw], every two weeks [q2w], or placebo). Patients received concomitant low and/or medium potency TCS, which could be tapered and discontinued based on clinical response. Topical calcineurin inhibitors could be used in areas considered inadvisable for TCS.
In further analysis, the efficacy and safety of dupilumab vs placebo (PBO) at 52 weeks was compared in two patient (pt) subsets of the population: pts who were earlier treated with CsA but responded inadequately or were intolerant to CsA (subset A; n=114) and the remaining study population (subset B; n=509). Subset A pts had, on average, more severe disease than subset B pts, as assessed by Eczema Area and Severity Index (EASI) (mean baseline±SD EASI score 37.0±12.70 vs 31.6±12.77; nominal p<0.0001 [post-hoc analysis]).

[3] = Functional dupilumab concentrations in serum, 52-week trial with TCS; details: Week 16
Protocol: The clinical trial was a 52-week randomized, multicenter, double-blind, placebo-controlled trial of subcutaneous dupilumab with concomitant topical corticosteroids (TCS) in 740 adult patients (NCT02260986) randomized 3:1:3 to placebo, dupilumab 300 mg every 2 weeks (q2w) and dupilumab 300 mg every week (qw); patients randomized to dupilumab received a loading dose of 600 mg. An open-label extension study of dupilumab 300 mg qw (NCT01949311) is ongoing in patients who participated in prior studies and results from 1076 patients treated for up to 68 weeks are also reported. This Example describes functional dupilumab concentrations measured in serum from blood samples at various time-points and analyzed using descriptive statistics.

[4] = Phase 2a pediatric study: pharmacokinetic profile of dupilumab; details: pediatric patients with AD, compared with adults
Protocol: as §1, §2

dupilumab: fully human anti-IL-4R antibody; heavy chain SEQ ID NO: 9, light chain SEQ ID NO: 10
patients who achieved IGA 0-1 ([1]; adolescent 2 mg cohort): 10%
peak pruritus NRS improved by ([1]; adolescent 2 mg cohort): 30.8%
baseline EASI improved by ([1]; adolescent 2 mg cohort): 66.4%
patients who achieved IGA 0-1 ([1]; adolescent 4 mg cohort): 35%
peak pruritus NRS improved by ([1]; adolescent 4 mg cohort): 37.6%
baseline EASI improved by ([1]; adolescent 4 mg cohort): 69.7%
reduction in EASI score from baseline ([1]; adolescent patients, single dose 2 mg/kg): 34%
reduction in EASI score from baseline ([1]; adolescent patients, single dose 4 mg/kg): 51%
patients who achieved IGA 0-1 ([1]; children 2 mg/kg cohort): 16.7%
peak pruritus NRS improved by ([1]; children 2 mg/kg cohort): 41.6%
baseline EASI improved by ([1]; children 2 mg/kg cohort): 76.2%
patients who achieved IGA 0-1 ([1]; children 4 mg cohort): 21.1%
peak pruritus NRS improved by ([1]; children 4 mg cohort): 39.6%
baseline EASI improved by ([1]; children 4 mg cohort): 63.4%
reduction in EASI score from baseline ([1]; children, single dose 2 mg/kg): 37%
reduction in EASI score from baseline ([1]; children, single dose 4 mg/kg): 33%
safety and tolerability ([1]; single and repeated weekly doses of 2 mg/kg and 4 mg/kg, both pediatric age groups): No new safety signals; also recorded: generally safe and well tolerated
treatment-emergent adverse event (TEAE) rate ([2]; CSA-eligible, dupilumab q2w): 87.2%
treatment-emergent adverse event (TEAE) rate ([2]; CSA-eligible, dupilumab qw): 81.7%
treatment-emergent adverse event (TEAE) rate ([2]; CSA-ineligible, dupilumab q2w): 91.7%
treatment-emergent adverse event (TEAE) rate ([2]; CSA-ineligible, dupilumab qw): 88.5%
proportion of patients achieving a 75% improvement in EASI ([2]; CsA-eligible, dupilumab 300 mg q2w + TCS): 69.1%
proportion of patients achieving a 75% improvement in EASI ([2]; CsA-eligible, dupilumab 300 mg qw + TCS): 67.0%
proportion of patients achieving a ≥4-point improvement in peak pruritus numerical rating scale ([2]; CsA-eligible, dupilumab q2w): 53.8%
proportion of patients achieving a ≥4-point improvement in peak pruritus numerical rating scale ([2]; CsA-eligible, dupilumab qw): 39.7%
proportion of patients achieving a 75% improvement in EASI ([2]; CsA-ineligible, dupilumab 300 mg q2w + TCS): 52.4%
proportion of patients achieving a 75% improvement in EASI ([2]; CsA-ineligible, dupilumab 300 mg qw + TCS): 50.0%
proportion of patients achieving a ≥4-point improvement in peak pruritus numerical rating scale ([2]; CsA-ineligible, dupilumab q2w): 42.9%
proportion of patients achieving a ≥4-point improvement in peak pruritus numerical rating scale ([2]; CsA-ineligible, dupilumab qw): 35.6%
Patients achieving EASI-75, n (%) ([2]; Subset A (inadequate response or intolerance to CsA), Dupilumab 300 mg Q2W ± TCS (N = 19)): (52.6) %
Patients achieving a peak pruritus NRS score improvement ≥4 points from baseline, n/N1 (%) ([2]; Subset A, Dupilumab 300 mg Q2W ± TCS): (47.4) %
Patients achieving EASI-75, n (%) ([2]; Subset A, Dupilumab 300 mg QW ± TCS (N = 43)): (48.8) %
Patients achieving a peak pruritus NRS score improvement ≥4 points from baseline, n/N1 (%) ([2]; Subset A, Dupilumab 300 mg QW ± TCS): (38.1) %
Patients achieving EASI-75, n (%) ([2]; Subset B (remaining study population), Dupilumab 300 mg Q2W ± TCS (N = 70)): (68.6) %
Patients achieving a peak pruritus NRS score improvement ≥4 points from baseline, n/N1 (%) ([2]; Subset B, Dupilumab 300 mg Q2W ± TCS): (52.2) %
Patients achieving EASI-75, n (%) ([2]; Subset B, Dupilumab 300 mg QW ± TCS (N = 227)): (67.0) %
Patients achieving a peak pruritus NRS score improvement ≥4 points from baseline, n/N1 (%) ([2]; Subset B, Dupilumab 300 mg QW ± TCS): (39.1) %
mean functional concentration of dupilumab in serum ([3]; 300 mg q2w (600 mg loading dose) with TCS): 80 mg/L
mean functional concentration of dupilumab in serum ([3]; 300 mg qw (600 mg loading dose) with TCS): 185 mg/L
pharmacokinetic profile [4]: consistent with adults

— patent publication US10485844B2, “Methods for treating severe atopic dermatitis by administering an IL-4R inhibitor” (Regeneron Pharmaceuticals, Inc., priority 2016, dated 2019)
